# Assay results as given in patent US20060020022A1, “Enantioselective separation method” (PHARMACIA & UPJOHN COMPANY LLC, priority 2004, published 2006).
# Legend:
# [1] = Photoracemization in ethanol in a 400-mL photoreactor with 450 W UV lamp, e.e. by enantioselective HPLC; format: physicochemical
# Method: The mixture was irradiated and aliquots were taken at about time=0, 12, 24, 41, 60, 87, 105, 135, and 162 minutes and analyzed by HPLC.
# The natural logarithm of e.e. at each time point was determined for each aliquot.
# Half-lives (minutes) and specific half-lives (minutes per gram) were calculated for each concentration.
# (§1) Using the procedure of Example (E), 10-g of (R)-8-ethyl-6-trifluoromethoxy-2-trifluoromethyl-2H-chromene-3-carboxylic acid was dissolved in 400 mL of ethanol to a concentration of 25-mg/mL, and the mixture was filtered to remove a small amount of insoluble material. The filtrate was placed in the photoreactor and irradiated.
# as §1, with “(R)-6,8-dimethyl-2-trifluoromethyl-2H-chromene-3-carboxylic” for “(R)-8-ethyl-6-trifluoromethoxy-2-trifluoromethyl-2H-chromene-3-carboxylic”
# [2] = Photoracemization in ethanol in a quartz cuvette under a UV spot lamp, e.e. by enantioselective HPLC; format: physicochemical; conditions: for ln (e.e.): 66.7-mg/mL in ethanol; for e.e. by HPLC after irradiation: 50-mg/mL in ethanol, start 21% e.e. of (S), 4 W/cm^2
# Method: Using a column with 0.46 cm inner diameter and 250 mm length filled with […]® AD stationary phase, a 10 μL injection volume, by eluting at room temperature with mobile phase (volume proportions) 95%/5% heptane:ethanol with 0.1% trifluoroacetic acid, at room temperature, flow rate at 1 mL/minute isocratic, and detected with a photodiode array detector at 254 nm wavelength, and a run time of 10 minutes.
# A 1.0-mg/mL solution of (S)-6-chloro-7-tert-butyl-2-trifluoromethyl-2H-chromene-3-carboxylic acid in ethanol was placed in a quartz cuvette and irradiated with light from a UV spot lamp that produced a 5 mm diameter spot of UV light (320-390 nm wavelength) at 4 W/cm^2 intensity.
# The first aliquot was placed in a quartz cuvette and irradiated in 90-second intervals over 25 minutes with light from a UV spot lamp that produced a 5 mm diameter spot of UV light (320-390 nm wavelength) at 4 W/cm^2 intensity to give a solution with 7.4% e.e. by HPLC. The second aliquot was placed in a quartz cuvette and irradiated continuously over 25 minutes with light from the UV spot lamp to give a solution with 12% e.e. by HPLC.
# A 40-mg/mL solution of (S)-6-chloro-7-tert-butyl-2-trifluoromethyl-2H-chromene-3-carboxylic acid in ethanol was placed in a quartz cuvette and irradiated with light from a UV spot lamp that produced a 5 mm diameter spot of UV light (320-390 nm wavelength) at 4 W/cm^2 intensity. Aliquots were taken at time=0, 1, 2, 4, 8, 12, and 16 minutes and analyzed by HPLC. The experiment was repeated. A rate constant k for each of the two experiments (k1 and k2) was calculated using the following equation: [formula] wherein t is the time in minutes, C is the concentration of chromene in moles per liter, and ln (e.e.) is the natural logarithm of percent enantiomeric excess. The rate constant k1 was 0.0764/minute and k2 was 0.0787/minute. A half-live τ for each of the two experiments (τ1 and τ2) was calculated using the following equation: [formula] […] A specific half-life of about 30 minutes per gram of enantiomer was calculated.
# The procedure of Example (C) was repeated except the concentration of (S)-6-chloro-7-tert-butyl-2-trifluoromethyl-2H-chromene-3-carboxylic acid in ethanol was 66.7-mg/mL. Aliquots were taken at time=0, 1, 2, 4, 8, 12, and 16 minutes and analyzed by HPLC. The natural logarithm of e.e. at each time point was determined for each aliquot. […] The natural logarithm of e.e. data is provided below in Table 1 in the row labeled “ln (e.e.).”
# [3] = 10-g in 400 mL ethanol, 25-mg/mL, t=5 minutes
smiles,measurement,setting,value
CCc1cc(OC(F)(F)F)cc2c1O[C@@H](C(F)(F)F)C(C(=O)O)=C2 [(R)-8-ethyl-6-trifluoromethoxy-2-trifluoromethyl-2H-chromene-3-carboxylic acid],ln (e.e.),[1]; [3],about 4.3
same,ln (e.e.),"[1]; 10-g in 400 mL ethanol, 25-mg/mL, t=95 minutes",about 1.4
CC(C)(C)c1cc2c(cc1Cl)C=C(C(=O)O)[C@@H](C(F)(F)F)O2 [(S)-6-chloro-7-tert-butyl-2-trifluoromethyl-2H-chromene-3-carboxylic acid],HPLC finding after UV irradiation,"[2]; 1.0-mg/mL in ethanol, UV 320-390 nm at 4 W/cm^2, after 30 minutes",racemic mixture
same,rate constant k1,"[2]; 40-mg/mL in ethanol, first experiment",0.0764 min⁻¹
same,rate constant k2,"[2]; 40-mg/mL in ethanol, repeated experiment",0.0787 min⁻¹
same,ln (e.e.),[2]; time 0 minutes,4.4
same,ln (e.e.),[2]; time 1 minute,4.3
same,ln (e.e.),[2]; time 2 minutes,4.2
same,ln (e.e.),[2]; time 4 minutes,4.0
same,ln (e.e.),[2]; time 8 minutes,3.8
same,ln (e.e.),[2]; time 12 minutes,3.4
same,ln (e.e.),[2]; time 16 minutes,3.3
"Cc1cc(C)c2c(c1)C=C(C(=O)O)[C@H](C(F)(F)F)O2 [(R)-6,8-dimethyl-2-trifluoromethyl-2H-chromene-3-carboxylic acid]",ln (e.e.),[1]; [3],about 4.2
same,ln (e.e.),"[1]; 10-g in 400 mL ethanol, 25-mg/mL, t=105 minutes",about 1.0
CC(C)(C)c1cc2c(cc1Cl)C=C(C(=O)O)[C@H](C(F)(F)F)O2 [(R)-6-chloro-7-tert-butyl-2-trifluoromethyl-2H-chromene-3-carboxylic acid],τ,"[1]; 4.00 g enantiomer, 10.0 mg/mL in ethanol",9.08 min
same,τ,"[1]; 8.00 g enantiomer, 20.0 mg/mL in ethanol",16.38 min
same,τ,"[1]; 10.00 g enantiomer, 25.00 mg/mL in ethanol",19.68 min
same,τ,"[1]; 13.00 g enantiomer, 32.5 mg/mL in ethanol",22.57 min
same,τ,"[1]; 16.00 g enantiomer, 40.0 mg/mL in ethanol, from Example (E)",31.65 min
same,rate constant k,"[1]; 16 g in 400 mL ethanol, 40-g/L",0.0109 min⁻¹
same,τ,"[1]; 20.04 g enantiomer, 50.1 mg/mL in ethanol",31.39 min
same,ln (e.e.),"[1]; 40-g/L in ethanol, time 0 minutes",4.5
same,ln (e.e.),"[1]; 40-g/L in ethanol, time 12 minutes",4.3
same,ln (e.e.),"[1]; 40-g/L in ethanol, time 24 minutes",4.0
same,ln (e.e.),"[1]; 40-g/L in ethanol, time 41 minutes",3.6
same,ln (e.e.),"[1]; 40-g/L in ethanol, time 60 minutes",3.2
same,ln (e.e.),"[1]; 40-g/L in ethanol, time 87 minutes",2.7
same,ln (e.e.),"[1]; 40-g/L in ethanol, time 105 minutes",2.2
same,ln (e.e.),"[1]; 40-g/L in ethanol, time 135 minutes",1.6
same,ln (e.e.),"[1]; 40-g/L in ethanol, time 162 minutes",1.1
CC(C)(C)c1cc2c(cc1Cl)C=C(C(=O)O)C(C(F)(F)F)O2 [(S)- and (R)-6-chloro-7-tert-butyl-2-trifluoromethyl-2H-chromene-3-carboxylic acid],e.e. by HPLC after irradiation,[2]; irradiated continuously over 25 minutes,12%
same,e.e. by HPLC after irradiation,[2]; irradiated in 90-second intervals over 25 minutes,7.4%
